Assay results taken from patent publication US10626092B2, “Polymorphic forms of 3-[(2-butyl-1-(2-diethylamino-ethyl)-1H-benzoimidazol-5-yl]-N-hydroxy-acrylamide and uses thereof” (MEI PHARMA, INC., priority 2016, dated 2020).
Where a name gives a salt, the structure may show the parent alone.

How the values were obtained:
Assay type in all cases: physicochemical
Variable humidity XRPD = conditions: variable humidity XRPD at 30° C.; dihydrochloride monohydrate
Source text: (§1) The analytical method is described herein.
as §1
(§2) For variable humidity and temperature experiments the ANSYCO HT chamber was used, installed within the D8 Advance system diffractometer (Bruker) designed with Brag-Brentano geometry and equipped with LynxEye solid state detector. The radiation used for collecting the data was CuKα1 (λ=1.54056 Å) monochromatized by germanium crystal. The material was placed on a fixed sample holder that was mounted inside the chamber.

[1] = Competitive slurry conversion (thermodynamic stability) of Form 1 and Form 3; conditions: one week slurry
Protocol: Approximately 50 mg of each solid form were solid dosed in a standard HPLC vial followed by solvent addition. The competitive slurry experiments were performed in ethanol/water mixtures and methanol/water mixtures within a water activity range of 0-0.2. Approximately 50 mg of each pracinostat dihydrochloride solid form 2.5 hydrate and monohydrate were solid dosed in 1.8 mL HPLC vials. Aliquots of 100 μL of the different water mixtures were added until about half of the amount of solid was in solution. […] Upon completion of the equilibration time, the solids were separated from the liquids by centrifugation. The solids were dried under ambient conditions (ambient) and dried under vacuum (vacuum) before HT-XRPD analysis. All solid samples were exposed to accelerated gaining conditions (40° C. and 70% RH) for two days (AAC). The water content in the liquid phase was determined Karl Fischer analysis.

Thermocycling studies = conditions: ethanol, absolute or extra dry; dihydrochloride monohydrate
Protocol: The suspensions were cycled between 5° C. and 50° C. followed by aging at 25° C. for 72 hours. […] Upon completion of the incubation time, the solids were collected, dried under ambient conditions and dried under deep vacuum before being analyzed by HT-XRPD. All the measured solids were exposed to accelerated ageing conditions (2 days at 40° C./70% RH) followed by re-analysis by HT-XRPD.

[2] = Long-term slurry conversion experiments
Protocol: Approximately 30 mg of the specific form was dosed in a standard HPLC vial and aliquots of 100 μL of solvent until a suspension was formed. […] The solids were isolated from the mother liquor and analyzed by HT-XRPD after mild drying under ambient conditions (ambient) and after thorough drying under vacuum (vacuum). All the solids were exposed to accelerated ageing conditions (2 days at 40° C./70% RH) and re-analyzed by HT-XRPD.

[3] = Desolvation studies: equilibration at 125° C. in high boiling point solvents; conditions: two days; for Form in Ambient AAC: then accelerated aging conditions
Protocol: Using solvent equilibration of hydrates in high boiling point solvents has been reported as a method to obtaining desolvated forms. […] The experiments were started with approximately 50 mg of material and 100 μL of solvent. After equilibration, the solids were isolated from the solutions by centrifugation. The solids were allowed to dry under ambient conditions before HT-XRPD analysis was performed. The wet solids were analyzed by HT-XRPD immediately to avoid hydration under ambient conditions or under vacuum.

[4] = Variable temperature XRPD; conditions: 25° C. to 143° C., cooling to 25° C., reheating to 155° C.
Protocol: To investigate the phase interconversions upon temperature exposure, a variable temperature XRPD analysis on 3-[2-butyl-1-(2-diethylamino-ethyl)-1H-benzoimidazol-5-yl]-N-hydroxy-acrylamide dihydrochloride 2.5 hydrate was performed. The experiment was run between 25° C. to 130° C. with cooling back to 25° C. at the end. […] After reaching a temperature of 130° C., the material was cooled back to 25° C.
A variable temperature XRPD experiment with 3-[2-butyl-1-(2-diethylamino-ethyl)-1H-benzoimidazol-5-yl]-N-hydroxy-acrylamide dihydrochloride monohydrate was conducted to investigate the solid form conversion that occurred upon heating. The experiment was run between 25° C. to 143° C. followed by cooling to 25° C., reheating to 155° C. and then cooling again to 25° C. (see FIG. 19).
as §2
VT-XRPD: The temperature variation rate was 10° C./min and the equilibration time, prior to starting the data collection at each temperature, was 8 min. The patterns were collected in the range 4-41°2θ, with a step of 0.01573°2θ and measuring time per step of 1 sec. The data collection time, per temperature, was 40 min.

[5] = Moisture sorption study (DVS analysis)

With CCCCc1nc2cc(/C=C/C(=O)NO)ccc2n1CCN(CC)CC [Form 1, 3-[2-butyl-1-(2-diethylamino-ethyl)-1H-benzoimidazol-5-yl]-N-hydroxy-acrylamide dihydrochloride monohydrate] the “relative humidity at which the form is physically stable” value (Variable humidity XRPD) was 10-85 % RH, the “water content of the solvent system at which the form is the most stable / obtained form” value ([1]; ethanol/water, 5° C. (below ambient), dihydrochloride monohydrate) was “below 2%” and the “water content of the solvent system at which the form is the most stable form” value ([1]; ethanol/water, 50° C. (elevated temperatures), dihydrochloride monohydrate) was 2-4%. For the same molecule, the “water content of the solvent system at which the form is the most stable form” value ([1]; methanol/water, 5° C.) was “below 6%”, the “solid form after thermocycling” value (Thermocycling studies) was “transformed into the anhydrous Form 9” and the “solid form after slurry” value ([2]; all ethanol/water and methanol/water mixtures at ambient conditions) was “transformed into the 2.5 hydrate (Form 3)”. For the same molecule, the “solid form after slurry” value ([2]; no water present in the solvent system) was “conversion to the anhydrous Form 9”, the “Form in Ambient” value ([3]; Anisole) was “Mono” and the “Form in Ambient AAC” value ([3]; Anisole) was 2.5. The “Form in Ambient” value ([3]; Cumene) was “Mono”, the “Form in Ambient AAC” value ([3]; Cumene, dihydrochloride monohydrate) was 2.5 and the “Form in Ambient” value ([3]; N-Methyl-2-pyrrolidone, dihydrochloride monohydrate) was “No solids”. For the same molecule, the “Form in Ambient” value ([3]; p-Xylene) was “Mono”, the “Form in Ambient AAC” value ([3]; p-Xylene) was 2.5 and the “solid form conversion upon heating” value [4] was “No solid form conversions were observed”. The “relative humidity level above which conversion to the 2.5 hydrate (Form 3) occurs” value ([5]; DVS 45-95% RH) was “above 85%”, the hygroscopicity ([5]; DVS, dihydrochloride monohydrate) was “hygroscopic” and the “solid form recovered after DVS” value ([5]; two sorption-desorption cycles 45-95-0-95-0-45% RH, HT-XRPD, dihydrochloride monohydrate) was “conversion mainly to the 2.5 hydrate (Form 3)”.
